Results taken from article PMC6199744, “Development of Chemical Proteomics for the Folateome and Analysis of the Kinetoplastid Folateome” (ACS Infectious Diseases, 2018).
“And” between values parts separate entries of the source, which are not always exact repeats. Identical values can stand only once. Like-named read-outs stand apart in the source and are kept apart here.

Test system: T. brucei lysate proteins
Assay type: binding, Trypanosoma brucei

Structure (SMILES): CCCCCCOc1cccc(Cc2cnc(N)nc2N)c1 [compound 2]
- fold change - vehicle control: 1 and 0.55 and 0.88 and 0.98 and 0.99
- fold change - vehicle control (protein RHS6A (CZT00028360.1)): 0.94
- fold change - vehicle control (protein TB09.160.1250 HY[…], CONSERVED): 0.96
- fold change - vehicle control (protein TB09.160.3670 RIBOSOMAL PROTEIN S6, PUTATIVE): 0.84
- fold change - vehicle control (protein TB09.211.2630 60S RIBOSOMAL PROTEIN L23, PUTATIVE): 1.12
- fold change - vehicle control (protein TB09.211.4513 KIN[…] PROTEIN KMP-11): 0.9
- fold change - vehicle control (protein TB11.V4.0005 RIBONUCLEOSIDE-DIPHOSPHATE REDUCTASE SMALL CHAIN): 0.86
- fold change - vehicle control (protein TB11.01.0870 R[…] A, 51KDA SUBUNIT, PUTATIVE): 1.05
- fold change - vehicle control (protein TB11.01.2560 40S RIBOSOMAL PROTEIN SA, PUTATIVE): 1.05
- fold change - vehicle control (protein TB11.01.4880 HY[…], CONSERVED): 0.89
- fold change - vehicle control (protein TB11.01.7090 HY[…], CONSERVED): 0.9
- fold change - vehicle control (protein TB11.02.2510 GUANINE NUCLEOTIDE-BINDING BETA SUBUNIT-LIKE PROTEIN): 0.96
- fold change - vehicle control (protein TB11.02.4170 40S RIBOSOMAL PROTEIN S5, PUTATIVE): 1.39
- fold change - vehicle control (protein TB11.03.0250 C[…]): 1.72
- fold change - vehicle control (protein TB11.46.0009 HY[…], CONSERVED): 1.02
- fold change - vehicle control (protein TB427TMP.01.0620 HY[…], CONSERVED): 0.96
- fold change - vehicle control (protein TB427TMP.01.1475 40S RIBOSOMAL PROTEIN S27, PUTATIVE): 1.03
- fold change - vehicle control (protein TB427TMP.01.4280 HY[…], CONSERVED): 0.85
- fold change - vehicle control (protein TB427TMP.01.4650 HY[…], CONSERVED): 1.21
- fold change - vehicle control (protein TB427TMP.01.4810 HY[…], CONSERVED): 0.93
- fold change - vehicle control (protein TB427TMP.01.5680 HY[…], CONSERVED): 0.97
- fold change - vehicle control (protein TB427TMP.01.8390 HY[…], CONSERVED): 0.8
- fold change - vehicle control (protein TB427TMP.02.0230 HY[…], CONSERVED): 1.22
- fold change - vehicle control (protein TB427TMP.02.0460 NUCLEOPORIN): 0.88
- fold change - vehicle control (protein TB427TMP.02.1106 NUCLEOBASE/NUCLEOSIDE TRANSPORTER 8 1): 1.35
- fold change - vehicle control (protein TB427TMP.160.2050 ENDO-BETA-N-ACETYLGLUCOSAMINIDASE, PUTATIVE): 0.89
- fold change - vehicle control (protein TB427TMP.160.4310 GLUTAMATE DEHYDROGENASE): 0.49
- fold change - vehicle control (protein TB427TMP.160.4450 40S RIBOSOMAL PROTEIN S3, PUTATIVE): 1.06
- fold change - vehicle control (protein TB427TMP.160.4630 HY[…], CONSERVED): 0.91
- fold change - vehicle control (protein TB427TMP.160.5200 HY[…], CONSERVED): 0.86
- fold change - vehicle control (protein TB427TMP.160.5670 HY[…], CONSERVED): 0.81
- fold change - vehicle control (protein TB427TMP.211.0930 POLYADENYLATE-BINDING PROTEIN 1): 1.27
- fold change - vehicle control (protein TB427TMP.211.1750 MIT[…] PROTEIN, PUTATIVE): 0.97
- fold change - vehicle control (protein TB427TMP.211.3510 ATP-DEPENDENT DEAD/H RNA HELICASE, PUTATIVE): 0.96
- fold change - vehicle control (protein TB427TMP.211.4540 RNA-BINDING PROTEIN, PUTATIVE): 0.6
- fold change - vehicle control (protein TB427TMP.244.2840 HY[…], CONSERVED): 1
- fold change - vehicle control (protein TB427.01.1240 CYTIDINE TR[…], PUTATIVE): 0.8
- fold change - vehicle control (protein TB427.01.2570 COATOMER BETA SUBUNIT): 0.82
- fold change - vehicle control (protein TB427.01.3910 HY[…], CONSERVED): 0.61
- fold change - vehicle control (protein TB427.02.450 RETRO[…] SPOT (RHS) PROTEIN, PUTATIVE): 0.84
- fold change - vehicle control (protein TB427.04.3350 HY[…], CONSERVED): 1.08
- fold change - vehicle control (protein TB427.04.3890 ATP-DEPENDENT RNA HELICASE, PUTATIVE): 0.83
- fold change - vehicle control (protein TB427.04.4870 AMINO ACID TRANSPORTER, PUTATIVE): 1.02
- fold change - vehicle control (protein TB427.04.750 50S RIBOSOMAL PROTEIN L7AE, PUTATIVE): 0.95
- fold change - vehicle control (protein TB427.04.960 HY[…], CONSERVED): 0.72
- fold change - vehicle control (protein TB427.05.1490 HY[…], CONSERVED): 0.95
- fold change - vehicle control (protein TB427.05.1780 HY[…], CONSERVED): 0.73
- fold change - vehicle control (protein TB427.05.3030 INTR[…] PROTEIN IFT122, PUTATIVE): 0.96
- fold change - vehicle control (protein TB427.06.3110 PROTEIN KINASE, PUTATIVE (CRK11)): 0.94
- fold change - vehicle control (protein TB427.06.5110 DAMAGE-SPECIFIC DNA BINDING PROTEIN, PUTATIVE): 0.9
- fold change - vehicle control (protein TB427.07.2670 HY[…], CONSERVED): 0.98
- fold change - vehicle control (protein TB427.07.3040 HY[…], CONSERVED): 0.96
- fold change - vehicle control (protein TB427.07.3530 HY[…], CONSERVED): 0.91
- fold change - vehicle control (protein TB427.07.4970 GLUTAMINE SYNTHETASE, PUTATIVE): 0.92
- fold change - vehicle control (protein TB427.07.5560 GLUCOSAMINE-FRUCTOSE-6-PHOSPHATE AMINOTRANSFERASE, PUTATIVE): 0.87
- fold change - vehicle control (protein TB427.07.5890 HY[…], CONSERVED): 0.8
- fold change - vehicle control (protein TB427.07.7070 HY[…], CONSERVED): 0.79
- fold change - vehicle control (protein TB427.07.7460 HY[…], CONSERVED): 0.98
- fold change - vehicle control (protein TB427.08.1500 HY[…], CONSERVED): 0.94
- fold change - vehicle control (protein TB427.08.1840 HY[…], CONSERVED): 0.7
- fold change - vehicle control (protein TB427.08.1960 HY[…], CONSERVED): 0.83
- fold change - vehicle control (protein TB427.08.2080 HY[…], CONSERVED): 0.75
- fold change - vehicle control (protein TB427.08.3750 NUCLEOLAR PROTEIN, PUTATIVE): 1.04
- fold change - vehicle control (protein TB427.08.6390 LYSOPHOSPHOLIPASE, PUTATIVE): 0.97
- fold change - vehicle control (protein TB427.10.10610 PROTEIN TYROSINE PHOSPHATASE, PUTATIVE): 0.94
- fold change - vehicle control (protein TB427.10.1100 60S RIBOSOMAL PROTEIN L9, PUTATIVE): 1.08
- fold change - vehicle control (protein TB427.10.12740): 0.97
- fold change - vehicle control (protein TB427.10.15720 […]-ATP-ASE SUBUNIT 9): 0.81
- fold change - vehicle control (protein TB427.10.2440 METACASPASE MCA4): 0.88
- fold change - vehicle control (protein TB427.10.2900 IMPORTIN BETA-1 SUBUNIT, PUTATIVE): 0.94
- fold change - vehicle control (protein TB427.10.3470 HY[…], CONSERVED): 0.79
- fold change - vehicle control (protein TB427.10.4110 60S RIBOSOMAL PROTEIN L30): 0.93
- fold change - vehicle control (protein TB427.10.4610 […]-MANNOSE SYNTHASE, PUTATIVE): 0.93
- fold change - vehicle control (protein TB427.10.5250 HY[…], CONSERVED): 0.89
- fold change - vehicle control (protein TB427.10.5840 T[…] 1-BETA, PUTATIVE): 0.85
- fold change - vehicle control (protein TB427.10.7410 SUCCINYL-COA LIGASE GDP-FORMING] BETA-CHAIN, PUTATIVE): 0.76
- fold change - vehicle control (protein TB927.10.12960 RAS-RELATED PROTEIN RAB-5): 1.03
- fold change - vehicle control (protein TB927.10.14800 PROTEIN KINASE, PUTATIVE): 1.13
- fold change - vehicle control (protein TB927.10.2980 […]-ATPASE SUBUNIT 11): 1.09
- fold change - vehicle control (protein TB927.10.3660 ASPARTATE AMINOTRANSFERASE): 1.09
- fold change - vehicle control (protein TB927.10.4570 […] 2): 0.79
- fold change - vehicle control (protein TB927.10.5140 PROTEIN KINASE, PUTATIVE): 0.91
- fold change - vehicle control (protein TB927.10.6510 CHAPERONIN HSP60, MIT[…]): 0.96
- fold change - vehicle control (protein TB927.3.1840 3-OXO-5-ALPHA-STEROID 4-DEHYDROGENASE, PUTATIVE): 1.16
- fold change - vehicle control (protein TB927.3.3780 TRYPAREDOXIN): 0.92
- fold change - vehicle control (protein TB927.3.740 HY[…], CONSERVED): 0.95
- fold change - vehicle control (protein TB927.4.2740 HY[…], CONSERVED): 0.85
- fold change - vehicle control (protein TB927.4.3590 T[…] 1-BETA, PUTATIVE): 0.81
- fold change - vehicle control (protein TB927.6.4320 HY[…], CONSERVED): 0.98
- fold change - vehicle control (protein TB927.7.2550 […] SUBUNIT 5): 0.92
- fold change - vehicle control (protein TB927.7.2980 HY[…], CONSERVED): 0.88
- fold change - vehicle control (protein TB927.7.5340 HY[…], CONSERVED): 1.48
- fold change - vehicle control (protein TB927.7.7430 ATP SYNTHASE ALPHA CHAIN, MIT[…]): 0.92
- fold change - vehicle control (protein TB927.8.1990 PEROXIDOXIN): 1.04
- fold change - vehicle control (protein TB927.8.4720 AMINO ACID TRANSPORTER, PUTATIVE): 1.06
